Laboratory results published in patent publication US4430335A (priority 1983, dated 1984).

Test system: mice
Design: species or system mice (male, CD-1)
Settings: mouse, in vivo

## CCC(=O)O[C@](Cc1ccccc1)(c1ccccc1)[C@H](C)CN(C)C [propoxyphine]
  Dose Subcutaneously (sc) [*= ED50 ], 50 % Inhibition of phenylquinone writhing: 3.4
